Measurements from patent US20130217595A1, “METHOD FOR THE IDENTIFICATION OF CATECHOL O-METHYLTRANSFERASE MODULATORS” (Hoffman-La Roche Inc., priority 2010, published 2013).

Target: human COMT (Homo sapiens, UniProt P21964)
Settings: SAM limited (500 nM); Alexa Fluor 488-Nitrocatechol substrate; FIG. 5
Method: The term “kinetic readout” refers to the difference of the fluorescent signal measured at two certain time points in the linear part of an enzymatic reaction. One measurement is done at the beginning of the enzymatic reaction (start-point) and after an incubation time a second readout is performed (end-point). The final signal is then calculated in rfu/min as (rfu(end-point)—rfu(start-point))/incubation time. (rfu: relative fluorescence units)
384-well microtiter plate, Corning black with flat clear bottom, non binding surface, polystyrene (ref. 3655)
Reagent and Buffer Stock Solutions: • Buffer stock solutions: • M Phosphate buffer pH 7.6 (Na2HPO4 Fluka 71644, NaH2PO4 Merck 6346.0500) stored at 4° C. • 580 mM MgCl2 (Merck 1.0833.0250), stored at RT • 1 M CaCl2 stored at 4° C. • 65 mM DTT (Sigma D-0632), stored at −20° C. • Recombinant human COMT: prepared in house, stored at −80° C. • 4-Nitrocatechol-Alexa Fluor 488: prepared in house, 1.3 mM in DMSO, stored at RT in the dark • S-Adenosyl-methionine: 10 mM in H2O (Sigma-Aldirch A2804), stored at −20° C. […]
Readout: kinetic measurement on plate: vision TM reader (exc. 475(40) nm, em. 535(45) nm, intensity 7.5%, exposure time 1 s.

Chain of human COMT (P21964 whole entry): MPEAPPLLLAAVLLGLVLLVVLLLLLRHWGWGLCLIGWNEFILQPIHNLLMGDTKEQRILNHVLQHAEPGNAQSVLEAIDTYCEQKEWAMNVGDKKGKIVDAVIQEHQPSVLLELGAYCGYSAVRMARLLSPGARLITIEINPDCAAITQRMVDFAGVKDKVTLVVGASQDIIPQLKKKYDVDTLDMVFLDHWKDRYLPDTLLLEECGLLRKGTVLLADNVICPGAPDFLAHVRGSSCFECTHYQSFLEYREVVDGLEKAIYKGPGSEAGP

## NCCc1ccc(O)c(O)c1 [dopamine]
  kinetic fluorescence readout plateau as a function of compound concentration: Decreasing plateaus were reached with increasing dopamine concentrations
